Data: US20110038948A1, “Methods of Reducing the Production of Reactive Oxygen Species and Methods of Screening or Identifying Compounds and Compositions that Reduce the Production of Reactive Oxygen Species” (UNIVERSITY OF TENNESSEE RESEARCH FOUNDATION, priority 2005, published 2011)

Assays:
3T3-L1 adipocytes = test: Cell proliferation / DNA synthesis in cultured adipocytes (CyQUANT); type: cell-based, mouse; conditions: 48 hours
Description: 3T3-L1 preadipocytes were incubated at a density of 8000 cells/cm^2 (10 cm^2 dish) and grown in Dulbecco's modified Eagle's medium (DMEM) containing 10% FBS and antibiotics (adipocyte medium) at 37° C. in 5% CO2 in air. Confluent preadipocytes were induced to differentiate with a standard differentiation medium consisting of DMEM-F10 (1:1, vol/vol) medium supplemented with 1% FBS, 1 μM dexamethasone, IBMX (0.5 mM) and antibiotics (1% Penicillin-Streptomycin). Preadipocytes were maintained in this differentiation medium for 3 days and subsequently cultured in adipocyte medium. Cultures were re-fed every 2-3 days to allow 90% of cells to reach full differentiation before conducting chemical treatment. Chemicals were freshly diluted in adipocyte medium before treatment. Cells were washed with fresh adipocyte medium, re-fed with medium containing the different treatments, and incubated at 37° C. in 5% CO2 in air before analysis. Cell viability was measured via trypan blue exclusion. Cells were plated in DMEM with different treatment in duplicate in 96-well plates. After 48 h, a CyQUANT Cell Proliferation Kit (Molecular Probes, Eugene, Oreg.) was used following the manufacturer's protocol. a microplate fluorometer (Packard Instrument Company, Inc., Downers Grove, Ill.) was used to measure CyQUANT fluorescence. Cell viability was determined by Trypan blue exclusion examination.

IL-6 = IL-6 expression in 3T3-L1 adipocytes; type: cell-based, mouse
Description: 3T3-L1 pre-adipocytes were incubated at a density of 8000 cells/cm^2 (10 cm^2 dish) and grown in Dulbecco's modified Eagle's medium (DMEM) containing 10% FBS and antibiotics (adipocyte medium) at 37° C. in 5% CO2 in air. Confluent pre-adipocytes were induced to differentiate with a standard differentiation medium consisting of DMEM-F10 (1:1, vol/vol) medium supplemented with 1% fetal bovine serum (FBS), 1 μM dexamethasone, isobutylmethylxanthine (IBMX) (0.5 mM) and antibiotics (1% Penicillin-Streptomycin). Pre-adipocytes were maintained in this differentiation medium for 3 days and subsequently cultured in adipocyte medium. Cultures were re-fed every 2-3 days to allow 90% cells to reach fully differentiation before conducting chemical treatment.
Cells were incubated in serum free medium overnight before chemical treatment. Chemicals were freshly diluted in adipocyte medium before treatment. […] Cell viability was measured via trypan blue exclusion.
Adipocyte and muscle 18s, TNFα, IL-6, IL-8, IL-15 and adiponectin were quantitatively measured using a smart cycler real-time PCR system (Cepheid, Sunnyvale, Calif.) with a TaqMan 1000 Core Reagent Kit (Applied Biosystems, Branchburg, N.J.). […] Reactions of quantitative RT-PCR for standards and unknown samples were also performed according to the instructions of Smart Cycler System (Cepheid, Sunnyvale, Calif.) and TaqMan Real Time PCR Core Kit (Applied Biosystems, Branchburg, N.J.). The mRNA quantitation for each sample was further normalized using the corresponding 18s quantitation. […]
Adipocyte and muscle 18s, CD14, TNFα, MIP, M-CSF, IL-6 and MCP-1 were quantitatively measured using a Smart Cycler Real Time PCR System (Cepheid, Sunnyvale, Calif.) with a TaqMan 1000 Core Reagent Kit (Applied Biosystems, Branchburg, N.J.). […] Reactions of quantitative RT-PCR for standards and unknown samples were also performed according to the instructions of Smart Cycler System (Cepheid, Sunnyvale, Calif.) and TaqMan Real Time PCR Core Kit (Applied Biosystems, Branchburg, N.J.). […]

Row | SMILES | increase in total DNA of cultured cells (3T3-L1 adipocytes; H2O2 100 nmol/L, p<0.001) | increase in IL-6 expression (IL-6; 100 nmol/L H2O2, 48 h, p<0.001) | effect on glucose induced DNA synthesis (3T3-L1 adipocytes; compound plus glucose 30 mmol/L) | effect on IL-6 expression (IL-6; 10 nmol/L 1α, 25-(OH)2-D3, 48 h) | effect on IL-6 expression (IL-6; calcitriol 10 nmol/L, 48 hours (Example 4))
1 | OO [H2O2, hydrogen peroxide] | 39% | 167% | – | – | –
2 | C=C1/C(=C\C=C2/CCC[C@]3(C)[C@@H]([C@H](C)CCCC(C)(C)O)CC[C@@H]23)C[C@@H](O)C[C@@H]1O [calcitriol, 1,25-(OH)2-D3] | – | – | augmented | markedly increased | markedly stimulate
